Results as given in the kinase profiling compilation of Christmann-Franck et al. (2016).

Assays:
Assay in all cases: radiometric filter-binding kinase assay, Kinase HotSpot
Details in all cases: compound 0.5 µM; ATP 10 µM
ACVR1B (human) = ACVR1B (human) (UniProt P36896)
ADRBK1 (human) = ADRBK1 (human) (UniProt P25098)
BRSK1 (human) = BRSK1 (human) (UniProt Q8TDC3)
CAMK1 (human) = CAMK1 (human) (UniProt Q14012)
CAMKK2 (human) = CAMKK2 (human) (UniProt Q96RR4)
CDK1 CCNA2 (human) = CDK1 CCNA2 (human) (UniProt P06493+P20248)
CDK5 CDK5R1 p25 (human) = CDK5 CDK5R1 p25 (human) (UniProt Q00535+Q15078)
CLK1 (human) = CLK1 (human) (UniProt P49759)
CSNK1E (human) = CSNK1E (human) (UniProt P49674)
DDR2 (human) = DDR2 (human) (UniProt Q16832)
DMPK (human) = DMPK (human) (UniProt Q09013)
DYRK1A (human) = DYRK1A (human) (UniProt Q13627)
DYRK3 (human) = DYRK3 (human) (UniProt O43781)
ERBB2 (human) = ERBB2 (human) (UniProt P04626)
FGFR1 (human) = FGFR1 (human) (UniProt P11362)
FRK (human) = FRK (human) (UniProt P42685)
GSK3A (human) = GSK3A (human) (UniProt P49840)
INSRR (human) = INSRR (human) (UniProt P14616)
KDR (human) = KDR (human) (UniProt P35968)
LIMK1 (human) = LIMK1 (human) (UniProt P53667)
MAP3K2 (human) = MAP3K2 (human) (UniProt Q9Y2U5)
MAPK13 (human) = MAPK13 (human) (UniProt O15264)
MKNK2 (human) = MKNK2 (human) (UniProt Q9HBH9)
MYLK2 (human) = MYLK2 (human) (UniProt Q9H1R3)
NEK1 (human) = NEK1 (human) (UniProt Q96PY6)
NEK7 (human) = NEK7 (human) (UniProt Q8TDX7)
PAK1 (human) = PAK1 (human) (UniProt Q13153)
PAK7 (human) = PAK7 (human) (UniProt Q9P286)
PHKG1 (human) = PHKG1 (human) (UniProt Q16816)
PHKG2 (human) = PHKG2 (human) (UniProt P15735)
PKN2 (human) = PKN2 (human) (UniProt Q16513)
PRKACA (human) = PRKACA (human) (UniProt P17612)
PRKCB2 (human) = PRKCB2 (human) (UniProt P05771)
PRKCE (human) = PRKCE (human) (UniProt Q02156)
PRKCH (human) = PRKCH (human) (UniProt P24723)
PTK2 (human) = PTK2 (human) (UniProt Q05397)
PTK6 (human) = PTK6 (human) (UniProt Q13882)
RPS6KA2 KD1 KD2 (human) = RPS6KA2 KD1 KD2 (human) (UniProt Q15349)
RPS6KA6 KD1 KD2 (human) = RPS6KA6 KD1 KD2 (human) (UniProt Q9UK32)
SRPK1 (human) = SRPK1 (human) (UniProt Q96SB4)
STK11 (human) = STK11 (human) (UniProt Q15831)
STK17A (human) = STK17A (human) (UniProt Q9UEE5)

Chain of NEK1 (human) (Q96PY6 whole entry, looked up): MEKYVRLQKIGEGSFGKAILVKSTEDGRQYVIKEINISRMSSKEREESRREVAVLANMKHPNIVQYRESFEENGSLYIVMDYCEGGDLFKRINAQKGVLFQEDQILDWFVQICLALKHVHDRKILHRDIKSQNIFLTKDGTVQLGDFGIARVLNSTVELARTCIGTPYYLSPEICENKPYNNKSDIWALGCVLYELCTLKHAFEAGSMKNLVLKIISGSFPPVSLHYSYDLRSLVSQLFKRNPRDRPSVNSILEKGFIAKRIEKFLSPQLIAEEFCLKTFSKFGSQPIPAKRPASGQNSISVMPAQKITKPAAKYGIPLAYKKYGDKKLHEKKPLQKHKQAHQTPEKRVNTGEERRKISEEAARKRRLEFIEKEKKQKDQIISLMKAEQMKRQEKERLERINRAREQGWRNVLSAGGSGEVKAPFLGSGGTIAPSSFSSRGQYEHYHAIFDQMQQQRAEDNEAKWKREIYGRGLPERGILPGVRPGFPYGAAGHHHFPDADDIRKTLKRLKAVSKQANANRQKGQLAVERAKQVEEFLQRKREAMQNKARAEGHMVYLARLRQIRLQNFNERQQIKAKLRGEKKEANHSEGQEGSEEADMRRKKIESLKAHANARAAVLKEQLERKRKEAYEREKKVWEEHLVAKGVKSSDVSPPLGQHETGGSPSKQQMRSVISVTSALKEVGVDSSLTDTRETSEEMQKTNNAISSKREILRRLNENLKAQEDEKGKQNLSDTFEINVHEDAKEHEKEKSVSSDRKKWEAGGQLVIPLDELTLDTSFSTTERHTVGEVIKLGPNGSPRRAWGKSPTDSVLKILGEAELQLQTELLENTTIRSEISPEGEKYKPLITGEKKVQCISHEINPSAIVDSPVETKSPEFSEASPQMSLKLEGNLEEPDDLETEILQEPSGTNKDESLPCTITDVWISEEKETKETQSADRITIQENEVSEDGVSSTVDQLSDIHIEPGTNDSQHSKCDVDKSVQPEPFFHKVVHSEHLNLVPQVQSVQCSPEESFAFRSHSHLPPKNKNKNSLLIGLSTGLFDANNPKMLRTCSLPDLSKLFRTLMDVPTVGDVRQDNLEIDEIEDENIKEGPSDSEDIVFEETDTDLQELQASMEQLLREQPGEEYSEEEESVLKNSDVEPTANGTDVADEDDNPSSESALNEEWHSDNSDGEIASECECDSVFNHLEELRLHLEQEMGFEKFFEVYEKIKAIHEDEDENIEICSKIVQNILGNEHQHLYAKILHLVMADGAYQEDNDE
Chain of DDR2 (human) (Q16832 whole entry, looked up): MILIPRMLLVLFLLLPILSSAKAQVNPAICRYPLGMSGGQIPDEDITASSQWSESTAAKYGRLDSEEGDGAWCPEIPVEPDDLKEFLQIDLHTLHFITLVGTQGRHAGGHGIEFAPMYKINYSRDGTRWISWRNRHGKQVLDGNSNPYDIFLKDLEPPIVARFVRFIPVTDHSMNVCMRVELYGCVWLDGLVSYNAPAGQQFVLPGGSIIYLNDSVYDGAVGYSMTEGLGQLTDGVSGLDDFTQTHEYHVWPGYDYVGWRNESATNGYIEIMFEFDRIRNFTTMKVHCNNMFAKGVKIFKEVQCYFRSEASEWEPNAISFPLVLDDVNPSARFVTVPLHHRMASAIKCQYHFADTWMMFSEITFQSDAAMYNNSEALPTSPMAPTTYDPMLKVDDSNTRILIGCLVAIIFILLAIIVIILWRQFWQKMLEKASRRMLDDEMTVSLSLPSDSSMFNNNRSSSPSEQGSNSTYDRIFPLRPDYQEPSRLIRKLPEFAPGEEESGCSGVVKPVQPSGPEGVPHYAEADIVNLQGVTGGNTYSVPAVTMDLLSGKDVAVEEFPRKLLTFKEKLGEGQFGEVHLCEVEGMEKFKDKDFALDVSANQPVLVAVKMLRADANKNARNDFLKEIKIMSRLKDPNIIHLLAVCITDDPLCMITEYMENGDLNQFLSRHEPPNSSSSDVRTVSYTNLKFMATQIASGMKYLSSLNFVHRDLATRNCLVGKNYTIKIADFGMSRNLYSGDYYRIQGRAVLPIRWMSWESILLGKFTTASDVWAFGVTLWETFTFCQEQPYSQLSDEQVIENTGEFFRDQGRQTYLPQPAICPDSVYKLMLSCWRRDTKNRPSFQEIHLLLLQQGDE
Chain of KDR (human) (P35968 whole entry, looked up): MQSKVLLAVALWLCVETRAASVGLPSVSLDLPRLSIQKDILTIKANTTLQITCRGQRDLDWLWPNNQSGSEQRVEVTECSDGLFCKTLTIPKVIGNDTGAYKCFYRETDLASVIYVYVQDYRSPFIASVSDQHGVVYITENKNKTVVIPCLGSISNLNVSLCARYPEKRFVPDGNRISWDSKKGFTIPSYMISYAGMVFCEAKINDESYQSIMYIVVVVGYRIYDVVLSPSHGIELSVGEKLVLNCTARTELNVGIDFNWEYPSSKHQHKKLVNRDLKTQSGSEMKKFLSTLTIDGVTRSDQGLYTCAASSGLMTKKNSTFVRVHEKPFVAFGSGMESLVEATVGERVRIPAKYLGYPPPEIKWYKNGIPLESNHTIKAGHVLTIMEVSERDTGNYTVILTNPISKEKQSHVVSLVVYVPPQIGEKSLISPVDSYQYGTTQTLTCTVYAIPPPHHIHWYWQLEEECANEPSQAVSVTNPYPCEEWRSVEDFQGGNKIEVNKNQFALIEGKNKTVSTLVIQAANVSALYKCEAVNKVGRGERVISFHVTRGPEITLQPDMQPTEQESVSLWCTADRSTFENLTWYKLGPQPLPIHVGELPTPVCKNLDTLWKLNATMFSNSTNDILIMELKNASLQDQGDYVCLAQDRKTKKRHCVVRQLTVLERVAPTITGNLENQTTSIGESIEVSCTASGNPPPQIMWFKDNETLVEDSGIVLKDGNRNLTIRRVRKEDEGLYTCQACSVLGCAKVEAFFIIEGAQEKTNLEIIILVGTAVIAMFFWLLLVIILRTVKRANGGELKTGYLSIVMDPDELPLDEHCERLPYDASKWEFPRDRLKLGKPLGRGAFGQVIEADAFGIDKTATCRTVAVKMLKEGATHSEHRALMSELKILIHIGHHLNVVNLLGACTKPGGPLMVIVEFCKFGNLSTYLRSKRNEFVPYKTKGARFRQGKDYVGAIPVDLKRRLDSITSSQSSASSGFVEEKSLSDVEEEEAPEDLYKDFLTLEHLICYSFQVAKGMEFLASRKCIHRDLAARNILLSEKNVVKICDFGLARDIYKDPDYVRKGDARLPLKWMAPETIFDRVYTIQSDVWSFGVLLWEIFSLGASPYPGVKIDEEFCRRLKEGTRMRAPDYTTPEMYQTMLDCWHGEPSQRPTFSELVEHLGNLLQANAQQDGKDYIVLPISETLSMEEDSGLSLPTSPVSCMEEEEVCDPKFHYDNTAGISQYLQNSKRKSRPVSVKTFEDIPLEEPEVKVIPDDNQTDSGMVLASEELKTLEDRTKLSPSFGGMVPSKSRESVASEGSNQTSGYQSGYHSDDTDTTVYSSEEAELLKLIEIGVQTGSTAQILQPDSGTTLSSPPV
Chain of BRSK1 (human) (Q8TDC3 whole entry, looked up): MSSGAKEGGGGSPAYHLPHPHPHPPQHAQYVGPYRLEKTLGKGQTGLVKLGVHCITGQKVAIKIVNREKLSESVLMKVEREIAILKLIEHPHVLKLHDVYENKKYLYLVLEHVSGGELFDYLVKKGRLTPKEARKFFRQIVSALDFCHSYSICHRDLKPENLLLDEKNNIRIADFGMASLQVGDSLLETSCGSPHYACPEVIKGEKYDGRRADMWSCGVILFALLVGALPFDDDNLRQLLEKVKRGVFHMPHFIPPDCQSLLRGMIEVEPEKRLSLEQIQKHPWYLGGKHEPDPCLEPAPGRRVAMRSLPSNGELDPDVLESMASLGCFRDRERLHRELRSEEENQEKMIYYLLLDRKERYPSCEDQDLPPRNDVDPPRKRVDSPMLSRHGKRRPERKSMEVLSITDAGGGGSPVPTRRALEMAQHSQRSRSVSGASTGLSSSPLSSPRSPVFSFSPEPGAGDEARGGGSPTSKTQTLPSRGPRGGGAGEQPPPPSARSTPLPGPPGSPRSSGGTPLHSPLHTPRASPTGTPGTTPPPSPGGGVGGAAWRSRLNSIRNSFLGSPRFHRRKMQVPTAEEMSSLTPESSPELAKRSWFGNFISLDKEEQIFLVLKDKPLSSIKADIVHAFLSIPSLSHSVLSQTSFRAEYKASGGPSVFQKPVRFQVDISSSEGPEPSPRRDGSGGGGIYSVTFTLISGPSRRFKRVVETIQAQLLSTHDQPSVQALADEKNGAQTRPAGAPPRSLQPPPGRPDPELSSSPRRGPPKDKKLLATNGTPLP
Chain of GSK3A (human) (P49840 whole entry, looked up): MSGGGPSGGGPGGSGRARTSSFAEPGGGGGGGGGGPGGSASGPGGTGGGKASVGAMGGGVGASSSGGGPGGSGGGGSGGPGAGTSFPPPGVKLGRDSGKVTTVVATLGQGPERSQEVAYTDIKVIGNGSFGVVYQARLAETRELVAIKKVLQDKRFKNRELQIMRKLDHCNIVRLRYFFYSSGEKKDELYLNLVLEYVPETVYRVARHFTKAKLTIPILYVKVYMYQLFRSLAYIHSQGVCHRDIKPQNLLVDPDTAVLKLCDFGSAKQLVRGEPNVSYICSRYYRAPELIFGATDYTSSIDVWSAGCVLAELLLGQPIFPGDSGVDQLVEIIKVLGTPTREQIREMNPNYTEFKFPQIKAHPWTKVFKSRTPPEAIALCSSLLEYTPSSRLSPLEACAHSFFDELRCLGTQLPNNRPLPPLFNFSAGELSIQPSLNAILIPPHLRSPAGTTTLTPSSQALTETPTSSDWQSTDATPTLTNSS
Chain of CAMK1 (human) (Q14012 whole entry, looked up): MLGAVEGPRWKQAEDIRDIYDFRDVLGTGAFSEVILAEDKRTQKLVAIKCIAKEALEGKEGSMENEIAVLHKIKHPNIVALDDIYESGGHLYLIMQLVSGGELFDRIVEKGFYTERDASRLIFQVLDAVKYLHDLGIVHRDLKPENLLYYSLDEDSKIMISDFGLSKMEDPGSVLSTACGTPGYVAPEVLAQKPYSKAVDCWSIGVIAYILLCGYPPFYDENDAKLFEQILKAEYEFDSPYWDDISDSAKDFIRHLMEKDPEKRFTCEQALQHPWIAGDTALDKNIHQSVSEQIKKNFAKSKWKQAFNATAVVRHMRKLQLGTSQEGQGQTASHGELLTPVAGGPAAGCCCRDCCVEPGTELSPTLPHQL

N#CC(C#N)=C(N)/C(C#N)=C/c1ccc(O)cc1
residual activity (ACVR1B (human)): 101%
residual activity (ADRBK1 (human)): 104%
residual activity (BRSK1 (human)): 99.2%
residual activity (CAMK1 (human)): 97.2%
residual activity (CAMKK2 (human)): 91.6%
residual activity (CDK1 CCNA2 (human)): 90.6%
residual activity (CDK5 CDK5R1 p25 (human)): 97.6%
residual activity (CLK1 (human)): 96.5%
residual activity (CSNK1E (human)): 92.4%
residual activity (DDR2 (human)): 97.6%
residual activity (DMPK (human)): 101%
residual activity (DYRK1A (human)): 95.9%
residual activity (DYRK3 (human)): 97.7%
residual activity (ERBB2 (human)): 90.1%
residual activity (FGFR1 (human)): 95.3%
residual activity (FRK (human)): 99%
residual activity (GSK3A (human)): 91.1%
residual activity (INSRR (human)): 99.9%
residual activity (KDR (human)): 97.2%
residual activity (LIMK1 (human)): 89.9%
residual activity (MAP3K2 (human)): 102%
residual activity (MAPK13 (human)): 103%
residual activity (MKNK2 (human)): 79.1%
residual activity (MYLK2 (human)): 99.4%
residual activity (NEK1 (human)): 95.7%
residual activity (NEK7 (human)): 98.9%
residual activity (PAK1 (human)): 90.9%
residual activity (PAK7 (human)): 94.5%
residual activity (PHKG1 (human)): 92.5%
residual activity (PHKG2 (human)): 96.7%
residual activity (PKN2 (human)): 96.9%
residual activity (PRKACA (human)): 100%
residual activity (PRKCB2 (human)): 111%
residual activity (PRKCE (human)): 89.3%
residual activity (PRKCH (human)): 90.3%
residual activity (PTK2 (human)): 98.5%
residual activity (PTK6 (human)): 84.9%
residual activity (RPS6KA2 KD1 KD2 (human)): 96.2%
residual activity (RPS6KA6 KD1 KD2 (human)): 104%
residual activity (SRPK1 (human)): 100%
residual activity (STK11 (human)): 96.5%
residual activity (STK17A (human)): 72.8%

COc1cc2ncnc(Nc3cccc(Cl)c3)c2cc1OC
residual activity (ACVR1B (human)): 98%
residual activity (ADRBK1 (human)): 96.6%
residual activity (BRSK1 (human)): 93.1%
residual activity (CAMK1 (human)): 99.2%
residual activity (CAMKK2 (human)): 97.5%
residual activity (CDK1 CCNA2 (human)): 94.9%
residual activity (CDK5 CDK5R1 p25 (human)): 87.3%
residual activity (CLK1 (human)): 103%
residual activity (CSNK1E (human)): 75.3%
residual activity (DDR2 (human)): 99.2%
residual activity (DMPK (human)): 102%
residual activity (DYRK1A (human)): 90.7%
residual activity (DYRK3 (human)): 96.3%
residual activity (ERBB2 (human)): 22.5%
residual activity (FGFR1 (human)): 84.9%
residual activity (FRK (human)): 81.1%
residual activity (GSK3A (human)): 104%
residual activity (INSRR (human)): 99%
residual activity (KDR (human)): 74.7%
residual activity (LIMK1 (human)): 72.4%
residual activity (MAP3K2 (human)): 98.2%
residual activity (MAPK13 (human)): 99.8%
residual activity (MKNK2 (human)): 39.5%
residual activity (MYLK2 (human)): 90.1%
residual activity (NEK1 (human)): 93.1%
residual activity (NEK7 (human)): 99%
residual activity (PAK1 (human)): 89.3%
residual activity (PAK7 (human)): 83%
residual activity (PHKG1 (human)): 88.9%
residual activity (PHKG2 (human)): 92.6%
residual activity (PKN2 (human)): 89.8%
residual activity (PRKACA (human)): 98.6%
residual activity (PRKCB2 (human)): 95.5%
residual activity (PRKCE (human)): 97.8%
residual activity (PRKCH (human)): 104%
residual activity (PTK2 (human)): 95.1%
residual activity (PTK6 (human)): 39%
residual activity (RPS6KA2 KD1 KD2 (human)): 85.5%
residual activity (RPS6KA6 KD1 KD2 (human)): 90.5%
residual activity (SRPK1 (human)): 102%
residual activity (STK11 (human)): 96.8%
residual activity (STK17A (human)): 95.4%
